# Experimental data as given in ChEMBL document CHEMBL4402573, “Discovery and Optimization of α-Mangostin Derivatives as Novel PDE4 Inhibitors for the Treatment of Vascular Dementia” (J Med Chem, 2020).
# Activity calls are given as the source filed them. No cut-off for these calls is given here.
# Assays:
# Mus musculus [1] = assay: Anti-VaD activity against UCCAO-induced spatial memory deficient C57BL/6J mouse model assessed as improvement in spatial learning and memory by measuring increase in residence time on the platform at 10 mg/kg, po administered for 21 days by Morris water maze test; assay type: functional, organism-based
# Homo sapiens [2] = species on record: Homo sapiens; assay: Selectivity index, ratio of IC50 for human PDE1B (10 to 487 residues) expressed in Escherichia coli BL21 codon-plus cells to IC50 for human PDE4D2 (86 to 413 residues) expressed in Escherichia coli BL21 codon-plus cells
# Mus musculus [3] = assay: Anti-VaD activity against UCCAO-induced spatial memory deficient C57BL/6J mouse model assessed as improvement in spatial learning and memory by measuring decrease in error time at 10 mg/kg, po administered for 21 days by passive avoidance test; assay type: functional, organism-based
# [4] = Oral bioavailability in Sprague-Dawley rat at 5 mg/kg measured upto 24 hrs by LC-MS/MS analysis; assay type: ADME, organism-based; conditions: in vivo
# Cytochrome P450 2C9 = Cytochrome P450 2C9 (Homo sapiens, UniProt P11712); assay: Inhibition of human CYP2C9; assay type: ADME
# [5] = Protein binding in rat plasma at 1 uM by LC-MS/MS analysis; assay type: ADME, cell-free; conditions: read-out: PPB
# Homo sapiens [6] = species on record: Homo sapiens; assay: Selectivity index, ratio of IC50 for human PDE2A (580 to 919 residues) expressed in Escherichia coli BL21 codon-plus cells to IC50 for human PDE4D2 (86 to 413 residues) expressed in Escherichia coli BL21 codon-plus cells
# [7] = target: High affinity cAMP-specific and IBMX-insensitive 3',5'-cyclic phosphodiesterase 8A (Homo sapiens, UniProt O60658); assay: Inhibition of human PDE8A1 (480 to 820 residues) expressed in Escherichia coli BL21 codon-plus cells using [3H]cAMP as substrate incubated for 15 mins by liquid scintillation counting method
# [8] = AUC(0 to t) in Sprague-Dawley rat at 2.5 mg/kg, iv measured upto 24 hrs by LC-MS/MS analysis; assay type: ADME, organism-based; design: dose 2.5 mg/kg, time < 24 hr, route intravenous; conditions: in vivo
# [9] = AUC(0 to infinity) in Sprague-Dawley rat at 2.5 mg/kg, iv measured upto 24 hrs by LC-MS/MS analysis; assay type: ADME, organism-based; design: dose 2.5 mg/kg, route intravenous, time infinity; conditions: in vivo
# RAW264.7 = assay: Antiinflammatory activity in mouse RAW264.7 assessed as reduction in LPS-induced NO production incubated for 24 hrs by Griess method; assay type: functional, cell-based
# Cytochrome P450 2B6 = Cytochrome P450 2B6 (Homo sapiens, UniProt P20813); assay: Inhibition of human CYP2B6; assay type: ADME
# Homo sapiens [10] = species on record: Homo sapiens; assay: Selectivity index, ratio of IC50 for human PDE8A1 (480 to 820 residues) expressed in Escherichia coli BL21 codon-plus cells to IC50 for human PDE4D2 (86 to 413 residues) expressed in Escherichia coli BL21 codon-plus cells
# [11] = Toxicity in Beagle dog assessed as animals exhibiting emesis at 5 mg/kg, po observed for 180 mins; assay type: organism-based, Canis lupus familiaris; conditions: in vivo, 3 h
# Cytochrome P450 3A4 = Cytochrome P450 3A4 (Homo sapiens, UniProt P08684); assay: Inhibition of human CYP3A4; assay type: ADME
# Homo sapiens [12] = species on record: Homo sapiens; assay: Selectivity index, ratio of IC50 for human PDE10A2 (449 to 770 residues) expressed in Escherichia coli BL21 codon-plus cells to IC50 for human PDE4D2 (86 to 413 residues) expressed in Escherichia coli BL21 codon-plus cells
# Homo sapiens [13] = species on record: Homo sapiens; assay: Selectivity index, ratio of IC50 for human PDE3A (679 to 1087 residues) expressed in Escherichia coli BL21 codon-plus cells to IC50 for human PDE4D2 (86 to 413 residues) expressed in Escherichia coli BL21 codon-plus cells
# [14] = Stability in rat liver microsomes assessed as half life at 0.5 uM; assay type: ADME, Microsome
# [15] = Half life in Sprague-Dawley rat at 2.5 mg/kg, iv measured upto 24 hrs by LC-MS/MS analysis; assay type: ADME, organism-based; conditions: in vivo
# Homo sapiens [16] = species on record: Homo sapiens; assay: Selectivity index, ratio of IC50 for human PDE7A1 (130 to 482 residues) expressed in Escherichia coli BL21 codon-plus cells to IC50 for human PDE4D2 (86 to 413 residues) expressed in Escherichia coli BL21 codon-plus cells
# Mus musculus [17] = assay: Anti-VaD activity against UCCAO-induced spatial memory deficient C57BL/6J mouse model assessed as improvement in spatial learning and memory by measuring increase in frequency of platform area crossings at 10 mg/kg, po administered for 21 days by Morris water maze test; assay type: functional, organism-based
# Mus musculus [18] = assay: Anti-VaD activity against UCCAO-induced spatial memory deficient C57BL/6J mouse model assessed as improvement in spatial learning and memory by measuring reduction in escape latency at 10 mg/kg, po administered for 21 days by Morris water maze test; assay type: functional, organism-based
# [19] = target: 3',5'-cyclic-AMP phosphodiesterase 4D (Homo sapiens, UniProt Q08499); assay: Inhibition of human PDE4D2 (86 to 413 residues) expressed in Escherichia coli BL21 codon-plus cells using [3H]cAMP as substrate incubated for 15 mins by liquid scintillation counting method
# [20] = Half life in Sprague-Dawley rat at 5 mg/kg, po measured upto 24 hrs by LC-MS/MS analysis; assay type: ADME, organism-based; conditions: in vivo
# [21] = target: Dual specificity calcium/calmodulin-dependent 3',5'-cyclic nucleotide phosphodiesterase 1B (Homo sapiens, UniProt Q01064); assay: Inhibition of human PDE1B (10 to 487 residues) expressed in Escherichia coli BL21 codon-plus cells using [3H]cAMP as substrate incubated for 15 mins by liquid scintillation counting method
# [22] = Acute toxicity in Kunming mouse at >=1.5 g/kg, po administered as single dose and measured for 14 days; assay type: organism-based; conditions: in vivo, 1500 mg/kg, 336 h
# [23] = AUC(0 to infinity) in Sprague-Dawley rat at 5 mg/kg, po measured upto 24 hrs by LC-MS/MS analysis; assay type: ADME, organism-based; design: dose 5 mg/kg, time infinity, route oral; conditions: in vivo
# [24] = target: Voltage-gated inwardly rectifying potassium channel KCNH2 (Homo sapiens, UniProt Q12809); assay: Inhibition of human ERG expressed in CHO cells by automated patch clamp electrophysiology; assay type: cell-based
# Homo sapiens [25] = species on record: Homo sapiens; assay: Selectivity index, ratio of IC50 for human PDE5A1 (535 to 860 residues) expressed in Escherichia coli BL21 codon-plus cells to IC50 for human PDE4D2 (86 to 413 residues) expressed in Escherichia coli BL21 codon-plus cells
# [26] = target: cGMP-inhibited 3',5'-cyclic phosphodiesterase 3A (Homo sapiens, UniProt Q14432); assay: Inhibition of human PDE3A (679 to 1087 residues) expressed in Escherichia coli BL21 codon-plus cells using [3H]cAMP as substrate incubated for 15 mins by liquid scintillation counting method
# Cytochrome P450 1A2 = Cytochrome P450 1A2 (Homo sapiens, UniProt P05177); assay: Inhibition of human CYP1A2; assay type: ADME
# Homo sapiens [27] = species on record: Homo sapiens; assay: Selectivity index, ratio of IC50 for human PDE9A2 (181 to 506 residues) expressed in Escherichia coli BL21 codon-plus cells to IC50 for human PDE4D2 (86 to 413 residues) expressed in Escherichia coli BL21 codon-plus cells
# cGMP-inhibited 3',5'-cyclic phosphodiesterase 3A, sequence (Q14432 whole entry, the tested form may be a part): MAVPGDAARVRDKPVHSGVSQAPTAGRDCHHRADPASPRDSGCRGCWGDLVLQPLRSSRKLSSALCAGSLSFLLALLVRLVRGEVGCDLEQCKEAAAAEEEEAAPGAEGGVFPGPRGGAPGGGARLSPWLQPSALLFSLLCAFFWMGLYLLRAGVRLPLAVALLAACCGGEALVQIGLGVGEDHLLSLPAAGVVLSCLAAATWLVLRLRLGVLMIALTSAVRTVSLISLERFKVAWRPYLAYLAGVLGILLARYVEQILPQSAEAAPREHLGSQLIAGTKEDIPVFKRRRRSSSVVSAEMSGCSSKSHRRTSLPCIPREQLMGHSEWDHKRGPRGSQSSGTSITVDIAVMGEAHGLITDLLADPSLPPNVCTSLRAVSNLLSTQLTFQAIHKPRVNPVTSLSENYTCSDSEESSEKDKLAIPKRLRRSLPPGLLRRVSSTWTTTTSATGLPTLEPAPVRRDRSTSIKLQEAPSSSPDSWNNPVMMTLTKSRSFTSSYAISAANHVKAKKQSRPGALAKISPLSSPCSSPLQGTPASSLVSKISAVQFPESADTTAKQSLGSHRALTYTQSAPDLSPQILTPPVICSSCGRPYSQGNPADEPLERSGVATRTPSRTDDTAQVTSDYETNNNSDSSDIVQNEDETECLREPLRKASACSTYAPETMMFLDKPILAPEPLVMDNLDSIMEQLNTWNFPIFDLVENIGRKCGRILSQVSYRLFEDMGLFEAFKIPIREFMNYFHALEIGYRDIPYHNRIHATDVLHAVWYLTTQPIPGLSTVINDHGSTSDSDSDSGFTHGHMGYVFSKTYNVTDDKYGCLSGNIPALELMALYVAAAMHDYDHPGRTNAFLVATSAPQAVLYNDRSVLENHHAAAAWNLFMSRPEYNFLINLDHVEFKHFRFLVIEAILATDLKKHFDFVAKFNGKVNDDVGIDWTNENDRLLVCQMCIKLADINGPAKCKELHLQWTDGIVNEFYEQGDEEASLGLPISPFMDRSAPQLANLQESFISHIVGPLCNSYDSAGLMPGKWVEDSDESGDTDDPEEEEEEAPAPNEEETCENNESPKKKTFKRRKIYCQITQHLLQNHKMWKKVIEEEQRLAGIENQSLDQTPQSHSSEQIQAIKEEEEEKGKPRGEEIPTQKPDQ
# Cytochrome P450 2B6, sequence (P20813 whole entry, the tested form may be a part): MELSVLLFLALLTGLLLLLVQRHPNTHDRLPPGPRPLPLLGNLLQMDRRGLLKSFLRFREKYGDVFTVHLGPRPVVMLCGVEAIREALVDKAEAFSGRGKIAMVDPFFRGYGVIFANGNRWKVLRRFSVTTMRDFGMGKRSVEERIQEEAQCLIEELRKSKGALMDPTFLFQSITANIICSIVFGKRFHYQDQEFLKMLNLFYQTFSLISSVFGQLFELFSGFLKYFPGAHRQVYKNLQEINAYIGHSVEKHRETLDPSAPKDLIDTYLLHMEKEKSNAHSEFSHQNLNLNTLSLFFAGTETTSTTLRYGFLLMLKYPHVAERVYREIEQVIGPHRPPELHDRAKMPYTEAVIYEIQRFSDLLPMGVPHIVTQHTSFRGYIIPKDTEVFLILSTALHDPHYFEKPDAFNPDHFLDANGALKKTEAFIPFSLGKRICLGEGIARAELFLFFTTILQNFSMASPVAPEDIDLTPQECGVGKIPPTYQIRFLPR
# High affinity cAMP-specific and IBMX-insensitive 3',5'-cyclic phosphodiesterase 8A, sequence (O60658 whole entry, the tested form may be a part): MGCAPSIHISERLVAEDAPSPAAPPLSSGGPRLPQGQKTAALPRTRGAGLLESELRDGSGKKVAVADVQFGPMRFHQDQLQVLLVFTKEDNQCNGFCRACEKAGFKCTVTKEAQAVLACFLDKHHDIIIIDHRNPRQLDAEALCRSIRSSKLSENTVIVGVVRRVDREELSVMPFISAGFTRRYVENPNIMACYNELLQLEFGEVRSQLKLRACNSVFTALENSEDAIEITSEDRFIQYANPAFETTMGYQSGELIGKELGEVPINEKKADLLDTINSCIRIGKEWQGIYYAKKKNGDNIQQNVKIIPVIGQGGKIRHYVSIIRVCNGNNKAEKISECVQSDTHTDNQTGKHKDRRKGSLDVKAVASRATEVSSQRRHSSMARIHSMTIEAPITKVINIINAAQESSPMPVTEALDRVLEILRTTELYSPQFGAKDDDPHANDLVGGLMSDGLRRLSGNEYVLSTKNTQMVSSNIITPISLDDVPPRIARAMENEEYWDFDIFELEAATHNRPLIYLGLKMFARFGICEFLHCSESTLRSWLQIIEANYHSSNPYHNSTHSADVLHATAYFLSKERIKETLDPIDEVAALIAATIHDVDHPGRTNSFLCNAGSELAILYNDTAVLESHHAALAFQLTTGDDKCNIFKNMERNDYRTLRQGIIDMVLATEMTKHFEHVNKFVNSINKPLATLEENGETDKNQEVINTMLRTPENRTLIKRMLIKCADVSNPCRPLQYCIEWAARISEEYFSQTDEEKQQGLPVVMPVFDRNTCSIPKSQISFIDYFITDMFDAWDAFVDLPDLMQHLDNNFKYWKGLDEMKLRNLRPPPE
# Cytochrome P450 2C9, sequence (P11712 whole entry): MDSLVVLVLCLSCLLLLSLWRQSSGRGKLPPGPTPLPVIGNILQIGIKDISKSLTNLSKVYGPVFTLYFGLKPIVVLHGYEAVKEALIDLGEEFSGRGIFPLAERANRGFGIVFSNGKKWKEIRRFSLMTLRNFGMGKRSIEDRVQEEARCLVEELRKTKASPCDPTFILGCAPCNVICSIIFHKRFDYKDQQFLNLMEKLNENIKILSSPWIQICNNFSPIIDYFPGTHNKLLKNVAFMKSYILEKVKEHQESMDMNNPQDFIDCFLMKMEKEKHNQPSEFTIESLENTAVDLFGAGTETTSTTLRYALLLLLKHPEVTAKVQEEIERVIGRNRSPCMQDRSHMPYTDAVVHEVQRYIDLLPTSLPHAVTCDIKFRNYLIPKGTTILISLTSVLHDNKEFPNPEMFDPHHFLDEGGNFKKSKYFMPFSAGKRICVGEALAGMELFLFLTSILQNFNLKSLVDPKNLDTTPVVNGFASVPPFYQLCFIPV
# Cytochrome P450 3A4, sequence (P08684 whole entry, the tested form may be a part): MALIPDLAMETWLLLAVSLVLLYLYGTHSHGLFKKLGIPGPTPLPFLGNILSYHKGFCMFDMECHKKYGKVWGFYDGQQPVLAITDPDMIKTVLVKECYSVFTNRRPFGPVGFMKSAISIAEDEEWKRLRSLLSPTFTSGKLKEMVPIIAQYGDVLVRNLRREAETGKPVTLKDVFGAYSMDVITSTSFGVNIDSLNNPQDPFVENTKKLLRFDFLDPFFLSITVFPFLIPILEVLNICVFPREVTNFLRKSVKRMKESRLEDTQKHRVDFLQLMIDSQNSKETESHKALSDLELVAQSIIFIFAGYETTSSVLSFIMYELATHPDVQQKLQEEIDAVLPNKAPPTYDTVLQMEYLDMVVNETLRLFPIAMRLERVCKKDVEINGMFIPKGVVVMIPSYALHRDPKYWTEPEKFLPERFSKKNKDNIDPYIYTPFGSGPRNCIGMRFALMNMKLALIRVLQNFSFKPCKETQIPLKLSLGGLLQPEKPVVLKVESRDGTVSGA
# Voltage-gated inwardly rectifying potassium channel KCNH2, sequence (Q12809 whole entry, the tested form may be a part): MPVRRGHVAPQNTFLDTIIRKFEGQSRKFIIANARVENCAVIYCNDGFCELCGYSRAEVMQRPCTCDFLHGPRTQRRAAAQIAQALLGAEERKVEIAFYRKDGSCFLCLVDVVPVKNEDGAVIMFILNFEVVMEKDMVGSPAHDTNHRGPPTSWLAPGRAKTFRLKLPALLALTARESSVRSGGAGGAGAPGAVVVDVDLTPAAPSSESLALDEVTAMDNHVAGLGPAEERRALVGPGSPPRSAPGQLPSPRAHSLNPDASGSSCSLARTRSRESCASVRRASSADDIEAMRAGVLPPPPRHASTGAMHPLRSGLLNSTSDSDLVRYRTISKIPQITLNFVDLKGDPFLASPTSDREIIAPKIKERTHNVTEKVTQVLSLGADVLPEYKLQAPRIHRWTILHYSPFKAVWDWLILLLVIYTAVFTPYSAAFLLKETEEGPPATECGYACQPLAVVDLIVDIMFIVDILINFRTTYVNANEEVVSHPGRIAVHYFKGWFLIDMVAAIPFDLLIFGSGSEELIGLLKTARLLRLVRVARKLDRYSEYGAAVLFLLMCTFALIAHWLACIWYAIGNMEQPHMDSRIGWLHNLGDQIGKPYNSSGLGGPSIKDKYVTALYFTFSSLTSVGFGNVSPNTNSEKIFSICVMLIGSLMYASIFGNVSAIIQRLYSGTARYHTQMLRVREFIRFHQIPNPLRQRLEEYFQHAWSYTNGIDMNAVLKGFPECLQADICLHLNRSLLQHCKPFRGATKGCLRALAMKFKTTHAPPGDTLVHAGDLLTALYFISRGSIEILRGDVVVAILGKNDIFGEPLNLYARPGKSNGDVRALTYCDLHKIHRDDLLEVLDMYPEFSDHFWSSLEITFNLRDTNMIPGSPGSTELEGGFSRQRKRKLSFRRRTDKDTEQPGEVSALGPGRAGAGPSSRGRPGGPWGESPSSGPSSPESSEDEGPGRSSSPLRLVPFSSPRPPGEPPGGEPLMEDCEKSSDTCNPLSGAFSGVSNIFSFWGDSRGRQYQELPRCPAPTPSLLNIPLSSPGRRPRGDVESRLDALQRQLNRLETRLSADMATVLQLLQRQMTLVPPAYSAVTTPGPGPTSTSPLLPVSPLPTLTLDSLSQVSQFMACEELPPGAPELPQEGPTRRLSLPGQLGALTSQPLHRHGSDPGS
structure (smiles),measurement,setting,value
COc1c(OCCCCCCC(=O)O)cc2oc3cc4c(c(O)c3c(=O)c2c1CC=C(C)C)C=CC(C)(C)O4,Activity,Mus musculus [1],Active
same,Ratio IC50,Homo sapiens [2],> 580
same,Activity,Mus musculus [3],Active
same,bioavailability,[4],28%
same,IC50,Cytochrome P450 2C9,> 10 µM
same,fraction unbound at 1 µM,[5],0.01
same,Ratio IC50,Homo sapiens [6],> 580
same,IC50,[7],> 10 µM
same,AUC(0-t) at 24 h,[8],6670 ng·h/mL
same,AUC(0-inf),[9],6710 ng·h/mL
same,Activity,RAW264.7,Dose-dependent effect
same,IC50,Cytochrome P450 2B6,> 10 µM
same,Ratio IC50,Homo sapiens [10],> 580
same,Activity,[11],0%
same,IC50,Cytochrome P450 3A4,> 10 µM
same,Ratio IC50,Homo sapiens [12],> 580
same,Ratio IC50,Homo sapiens [13],> 580
same,half-life at 0.5 µM,[14],168 min
same,half-life,[15],257 min
same,Ratio IC50,Homo sapiens [16],36
same,Activity,Mus musculus [17],Active
same,Activity,Mus musculus [18],Active
same,IC50,[19],17 nM
same,half-life,[20],209 min
same,IC50,[21],> 10 µM
same,Activity,[22],Non-Toxic
same,AUC(0-inf),[23],4790 ng·h/mL
same,IC50,[24],> 30 µM
same,Ratio IC50,Homo sapiens [25],199
same,IC50,[26],> 10 µM
same,IC50,Cytochrome P450 1A2,> 10 µM
same,Ratio IC50,Homo sapiens [27],> 580
